Assay: GLP toxicokinetic study in anesthetized rabbits, plasma oxytocin by LC-MS/MS
Format: in vivo
Settings: rabbit, IM, 10 IU
Method: The toxicokinetic study in rabbits (Table 2) was conducted at a contract animal facility (Noble Life Sciences, Sykesville, MD, USA) under approval from Noble Life Sciences IACUC (approval code: NLS-589, date: 13 May 2020) and in compliance with the U.S. Food and Drug Administration Good Laboratory Practice Regulations for Nonclinical Laboratory Studies (21 CFR Part 58).
For SL placement of fast dissolving tablets, the rabbit was anesthetized and positioned on a flat table, with the lower jaw strongly supported in a horizontal level on the table. Using rounded tip stainless tweezers, the rabbit’s tongue was carefully raised, and the sublingual tablet was placed beneath the tongue (see Figure 1). Anesthesia was maintained for 3 h after drug administration to keep the tablet in sublingual position and prevent entering the gastrointestinal tract.
Animals were not fasted prior to blood collection. Blood was collected at the time points of 0 min (pre-dose) and 5, 10, 15, 20, 30, 60, 120, and 180 min post-dose and at euthanasia only the first four animals for SL group. All animals were anesthetized pre-dose, prior to dosing. All animals were anesthetized with ketamine (35–50 mg/kg) and xylazine (3–5 mg/kg) via a subcutaneous or intramuscular (IM) route followed by maintenance anesthesia with additional half doses if needed or via inhaled isoflurane. At the selected time points, whole blood was collected aseptically from the auricular artery and dispensed into the appropriate collection tubes in any order: (1) K3 EDTA for hematology determinations; (2) 0.129 M, 3.8% sodium citrate for coagulation analyses (plasma); (3) serum separator tube for serum chemistry and C-reactive protein; and (4) aprotinin-spiked (K2EDTA) tubes for plasma oxytocin determinations. Tubes containing hematology specimens were placed at room temperature on a rocker for at least 30 min prior to shipment. Tubes containing whole blood for serum isolation were maintained for at least 30 min and no more than 4 h at room temperature before being processed to serum. Tubes containing aprotinin-spiked (K2EDTA) specimens for oxytocin determinations were maintained on wet ice or cold packs before use and after collection. They were also maintained on a rocker for at least 30 min prior to processing.
Blood samples for oxytocin determination were collected into the Aprotinin spiked (K2EDTA) vacutainer tubes and processed for collection of plasma. The samples were processed by centrifuging for approximately 15 min at approximately 3000 rpm and approximately 4 °C; they were aliquoted into cryovials without anticoagulant and were immediately placed on dry ice. At termination, blood was collected from the SL group for serum chemistry, C-reactive protein, hematology, and coagulation. Blood collected for coagulation analyses was collected into tubes containing 3.8% sodium citrate and was processed for plasma per the Noble protocol. All serum and plasma samples were processed aseptically.
Each plasma sample was aliquoted into two vials of an approximately equal volume. All the collected plasma was analyzed for oxytocin levels by the LC-MS/MS method.
The bioanalytical method for quantification of oxytocin in rabbit plasma (K2EDTA) was validated following the FDA guidelines for a bioanalytical method validation at NorthEast BioAnalytical Laboratory, LLC (NEBA) (Hamden, CT, USA), via reverse phase liquid chromatography separation (Column: Zorbax SB C18 (Agilent, Santa Clara, CA, USA) 3.5 μm 150 × 4.6 mm, Security/Guard Cartridge Gemini C18 4 × 2.0 mm) and detection by tandem mass spectrometry (LC/MS/MS) using Sciex API-5000 Mass Spectrometer. Analysis of Oxytocin was performed using stable label internal standard, Oxytocin-d5. Oxytocin was received as an acetate salt and Oxytocin-d5 was received as Trifluoroacetate salt.
For quantitation, the LC/MS/MS data were acquired using Analyst® v1.6 software (Sciex, Framingham, MA, USA). […]

CC[C@H](C)[C@@H]1NC(=O)[C@H](Cc2ccc(O)cc2)NC(=O)[C@@H](N)CSSC[C@@H](C(=O)N2CCC[C@H]2C(=O)N[C@@H](CC(C)C)C(=O)NCC(N)=O)NC(=O)[C@H](CC(N)=O)NC(=O)[C@H](CCC(N)=O)NC1=O [Intramuscular (Control), Oxytocin]
AUC(0-t) (plasma, linear trapezoidal, mean, n = 8): 4.82 ± 0.728 ng·h/mL
half-life (plasma, mean, n = 8): 1.02 ± 0.336 h
time to rapid increase in plasma oxytocin concentration: ≤ 5 min
Tlast (mean, n = 8): 2.88 ± 0.354 h
Tmax (plasma, LC-MS/MS, mean ± SD, n = 8, SD): 1.13 ± 0.916 h
Cmax (plasma, LC-MS/MS, mean, n = 8): 2.66 ± 0.567 ng/mL

From PMC9144145, “Preclinical Safety and Pharmacokinetics of Heat Stable Oxytocin in Sublingual Fast-Dissolving Tablet Formulation” (Pharmaceutics, 2022)
